In article PMC8213057, “Targeting ALK2: An Open Science Approach to Developing Therapeutics for the Treatment of Diffuse Intrinsic Pontine Glioma” (Journal of Medicinal Chemistry, 2020):

Key:
DMPK = target: T1, DMPK (Homo sapiens, UniProt Q09013); experiment: biochemical; settings: read-out: % enzyme activity, 1 μM; Run 1, Run 2
T1 sequence (Q09013 1-629): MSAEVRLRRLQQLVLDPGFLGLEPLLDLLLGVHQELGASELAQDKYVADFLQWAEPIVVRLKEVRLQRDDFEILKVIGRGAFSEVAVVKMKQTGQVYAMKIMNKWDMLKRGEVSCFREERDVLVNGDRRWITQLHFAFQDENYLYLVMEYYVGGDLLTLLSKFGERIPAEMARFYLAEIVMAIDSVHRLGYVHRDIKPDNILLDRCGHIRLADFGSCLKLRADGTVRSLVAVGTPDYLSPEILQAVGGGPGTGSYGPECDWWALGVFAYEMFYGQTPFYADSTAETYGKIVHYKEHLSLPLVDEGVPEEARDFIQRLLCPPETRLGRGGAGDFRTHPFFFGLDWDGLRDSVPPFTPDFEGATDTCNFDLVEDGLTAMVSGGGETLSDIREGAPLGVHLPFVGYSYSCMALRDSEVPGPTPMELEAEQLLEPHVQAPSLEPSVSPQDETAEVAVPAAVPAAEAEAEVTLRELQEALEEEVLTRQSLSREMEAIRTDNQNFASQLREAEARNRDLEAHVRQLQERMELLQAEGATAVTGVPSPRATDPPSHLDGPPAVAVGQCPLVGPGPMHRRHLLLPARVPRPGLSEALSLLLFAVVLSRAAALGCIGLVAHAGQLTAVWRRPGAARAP

CAMK1a = CAMK1a (Homo sapiens, UniProt Q14012); experiment: biochemical; settings: read-out: % enzyme activity, 1 μM; Run 1, Run 2
Chain of CAMK1a (Q14012 whole entry): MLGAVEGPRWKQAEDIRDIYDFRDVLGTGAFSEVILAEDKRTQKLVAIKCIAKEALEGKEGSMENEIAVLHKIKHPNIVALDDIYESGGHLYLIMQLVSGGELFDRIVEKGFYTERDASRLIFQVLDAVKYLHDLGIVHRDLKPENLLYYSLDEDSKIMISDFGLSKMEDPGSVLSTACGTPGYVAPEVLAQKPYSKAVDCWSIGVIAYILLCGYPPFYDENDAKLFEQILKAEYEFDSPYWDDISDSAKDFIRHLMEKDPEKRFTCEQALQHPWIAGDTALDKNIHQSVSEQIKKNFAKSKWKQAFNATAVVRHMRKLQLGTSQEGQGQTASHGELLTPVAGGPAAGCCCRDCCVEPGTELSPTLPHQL

NEK11 = target: T2, NEK11 (Homo sapiens, UniProt Q8NG66); settings: 1 μM; Run 1, Run 2
T2 sequence (Q8NG66 1-645): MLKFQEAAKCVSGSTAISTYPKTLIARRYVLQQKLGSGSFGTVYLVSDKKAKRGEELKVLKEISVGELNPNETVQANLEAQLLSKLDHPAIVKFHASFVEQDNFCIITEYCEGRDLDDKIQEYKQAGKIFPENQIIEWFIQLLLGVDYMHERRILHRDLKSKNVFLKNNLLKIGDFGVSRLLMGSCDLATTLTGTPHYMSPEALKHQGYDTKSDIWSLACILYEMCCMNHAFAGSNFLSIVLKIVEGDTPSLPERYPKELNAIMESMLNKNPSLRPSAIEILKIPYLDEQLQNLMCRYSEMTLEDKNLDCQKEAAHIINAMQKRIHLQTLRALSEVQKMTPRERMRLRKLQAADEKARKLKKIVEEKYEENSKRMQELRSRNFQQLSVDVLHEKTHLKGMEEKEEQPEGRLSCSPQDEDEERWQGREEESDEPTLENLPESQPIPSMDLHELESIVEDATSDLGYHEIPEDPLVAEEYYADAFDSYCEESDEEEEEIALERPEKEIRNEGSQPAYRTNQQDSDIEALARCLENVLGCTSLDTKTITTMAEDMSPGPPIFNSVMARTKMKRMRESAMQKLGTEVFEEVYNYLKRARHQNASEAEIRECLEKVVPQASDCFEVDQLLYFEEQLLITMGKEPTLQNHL

MEK3 = target: T3, MEK3 (Homo sapiens, UniProt P46734); experiment: biochemical; settings: read-out: % enzyme activity, 1 μM; Run 1, Run 2
T3 sequence (P46734 1-347): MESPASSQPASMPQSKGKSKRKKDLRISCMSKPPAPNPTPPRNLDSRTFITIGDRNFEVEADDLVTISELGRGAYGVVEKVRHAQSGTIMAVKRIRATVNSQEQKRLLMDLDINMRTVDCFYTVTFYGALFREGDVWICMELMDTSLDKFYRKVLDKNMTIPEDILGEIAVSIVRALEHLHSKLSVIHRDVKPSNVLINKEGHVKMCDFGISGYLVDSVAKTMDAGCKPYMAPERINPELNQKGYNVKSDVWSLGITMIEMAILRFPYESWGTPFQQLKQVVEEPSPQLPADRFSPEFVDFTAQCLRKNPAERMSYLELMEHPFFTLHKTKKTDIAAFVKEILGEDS

PKCb2 = PKCb2 (Homo sapiens, UniProt P05771); settings: 1 μM; Run 1, Run 2
Chain of PKCb2 (P05771 1-673 isoform P05771-2): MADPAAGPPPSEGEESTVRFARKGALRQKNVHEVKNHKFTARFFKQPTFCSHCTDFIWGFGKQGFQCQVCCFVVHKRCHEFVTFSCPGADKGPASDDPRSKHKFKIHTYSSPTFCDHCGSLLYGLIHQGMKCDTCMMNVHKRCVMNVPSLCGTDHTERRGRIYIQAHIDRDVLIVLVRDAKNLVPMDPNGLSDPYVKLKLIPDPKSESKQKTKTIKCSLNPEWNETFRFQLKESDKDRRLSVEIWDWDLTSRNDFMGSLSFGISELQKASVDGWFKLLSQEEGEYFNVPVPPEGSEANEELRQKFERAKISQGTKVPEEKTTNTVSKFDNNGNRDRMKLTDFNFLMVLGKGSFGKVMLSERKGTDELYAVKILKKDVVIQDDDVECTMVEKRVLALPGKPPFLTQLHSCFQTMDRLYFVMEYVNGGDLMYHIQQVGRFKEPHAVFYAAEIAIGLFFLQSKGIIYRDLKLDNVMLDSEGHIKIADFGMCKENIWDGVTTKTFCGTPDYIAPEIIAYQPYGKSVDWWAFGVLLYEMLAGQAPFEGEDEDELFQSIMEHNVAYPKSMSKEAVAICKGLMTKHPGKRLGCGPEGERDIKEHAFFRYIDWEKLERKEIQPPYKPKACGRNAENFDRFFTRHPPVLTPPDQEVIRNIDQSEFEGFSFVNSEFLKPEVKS

PKCzeta = target: T4, PKCzeta (Homo sapiens, UniProt Q05513); settings: 1 μM; Run 1, Run 2
T4 sequence (Q05513 1-592): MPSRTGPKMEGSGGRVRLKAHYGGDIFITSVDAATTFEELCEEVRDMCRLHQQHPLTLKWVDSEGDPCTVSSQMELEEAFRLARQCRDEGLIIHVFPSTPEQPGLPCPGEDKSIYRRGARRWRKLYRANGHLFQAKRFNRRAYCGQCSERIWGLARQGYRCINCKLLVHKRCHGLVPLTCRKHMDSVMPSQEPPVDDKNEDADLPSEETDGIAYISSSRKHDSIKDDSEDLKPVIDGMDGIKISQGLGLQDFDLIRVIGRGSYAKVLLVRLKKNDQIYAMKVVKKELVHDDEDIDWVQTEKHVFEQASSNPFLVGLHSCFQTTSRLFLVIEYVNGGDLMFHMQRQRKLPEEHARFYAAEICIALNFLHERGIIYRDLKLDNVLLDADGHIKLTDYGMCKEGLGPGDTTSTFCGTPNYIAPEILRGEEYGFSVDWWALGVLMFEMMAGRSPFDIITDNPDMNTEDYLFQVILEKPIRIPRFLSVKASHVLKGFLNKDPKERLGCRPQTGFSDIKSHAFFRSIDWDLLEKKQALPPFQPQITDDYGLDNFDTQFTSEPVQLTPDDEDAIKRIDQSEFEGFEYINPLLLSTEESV

Row | SMILES | remaining activity at 1 µM (DMPK) | remaining activity at 1 µM (CAMK1a) | % enzyme activity (NEK11) | remaining activity at 1 µM (MEK3) | % enzyme activity (PKCb2) | % enzyme activity (PKCzeta)
1 | COc1cc(-c2cncc(-c3ccc(N4CCN(C)CC4)cc3)c2C)cc(F)c1C(N)=O [Compound 26a, 2-Fluoro-6-methoxy-4-(4-methyl-5-(4-(4-methylpiperazin-1-yl)phenyl)pyridin-3-yl)benzamide] | 109% | 94.9% | 85.69% | 102% | 106.51% | 90.40%
2 | COc1cc(-c2cncc(-c3ccc(N4C[C@@H](C)N(C)[C@@H](C)C4)cc3)c2C)cc(F)c1C(N)=O [Compound 26c, 2-Fluoro-6-methoxy-4-(4-methyl-5-(4-((3R,5S)-3,4,5-trimethylpiperazin-1-yl)phenyl)pyridin-3-yl)benzamide] | 105% | 97.5% | 87.79% | 101% | 97.56% | 91.43%
